Legend:
[1] = Singlet oxygen quantum yield, indirect method with chemical quencher (DPBF or ADMA); assay type: physicochemical
Text: Photogeneration quantum yields of singlet oxygen (ΦΔ) were obtained by an indirect method, using either diphenylisobenzofuran (DBPF) or anthracene-9,10-bis-methylmalonate (ADMA) as chemical quenchers in either N,N-dimethylformamide or aqueous media, respectively. Typically, a solution of the phthalocyanine and the quencher was irradiated with a red LED lamp (670 nm) at 5 mW/cm^2. The initial DPBF or ADMA concentrations were kept the same for both the reference and the test samples. The degradation of the DPBF band at 414 nm or ADMA at 401 nm was monitored in a Varian Cary® 50 UV-Vis spectrophotometer, every five seconds in the case of DPBF (up to 30 seconds) and every minute in the case of ADMA (up to five minutes). ZnPc (ΦΔ=0.67) and AlPcSmix (ΦΔ=0.42) were used as references in N,N-dimethylformamide or aqueous media, respectively.
The relative method shown by Eq. (1) was employed for calculations of the ΦΔ:
[formula] • where ΦΔ and ΦΔref are the ^1O2 generation quantum yields for the sample and reference, respectively, m and mref are the DPBF or ADMA photobleaching rates in the presence of the phthalocyanine of the invention and the reference, respectively, and I and Iref are the rates of light absorption by the phthalocyanine derivative and reference, respectively. Concentrations of the test compound and reference were chosen such that their respective absorptions at the irradiation wavelength were the same.

[2] = Kinetic (aqueous) solubility in pH 7.4 DPBS, UV quantification; details: for Solubility* (kinetic solubility): pH 7.4 DPBS, 4 hours, room temperature (25° C.); for solubility kinetic at 4 h: pH 7.4, aqueous buffer, kinetic from dmso stock
[3] = quencher ADMA, aqueous media, 670 nm LED 5 mW/cm^2, reference AlPcSmix

SMILES | Solubility* (kinetic solubility) [2] | solubility kinetic at 4 h ([2]; 25 °C) | ΦΔ (singlet oxygen quantum yield) [1, 3] | also measured
COCCOCCOCC(=O)NCCC[Si](C)(C)O[Si-2]123(O[Si](C)(C)CCCNC(=O)CCCCC(=O)O)n4c5c6ccccc6c4N=C4c6ccccc6C(=[N+]41)N=c1c4ccccc4c(n12)=NC1=[N+]3C(=N5)c2ccccc21 [Example 1, 6-((3-(dimethyl((19-((15-methyl-10-oxo-2,5,8-trioxa-11-aza-15-silahexadecan-15-yl)oxy)-19H-6,11-(azeno)-17,21-(azeno[3]episoindoloazeno)benzo[7,8][1,3,5,10]tetraaza[2]silacycloundecino[4,3-a:11,1-a′]diisoindol-19-yl)oxy)silyl)propyl)amino)-6-oxohexanoic acid] |  |  |  | ΦΔ (singlet oxygen quantum yield) ([1]; quencher DPBF, N,N-dimethylformamide, 670 nm LED 5 mW/cm^2, reference ZnPc): A (A: ≤0.5)
C[Si](C)(CCCNC(=O)CCCN(CCCS(=O)(=O)O)CCCS(=O)(=O)O)O[Si]1(O[Si](C)(C)CCCNC(=O)COCC(=O)O)n2c3c4ccccc4c2N=C2N=C(N=c4c5ccccc5c(n41)=NC1=NC(=N3)c3ccccc31)c1ccccc12.N (stereo not drawn) [Example 15, Ammonium 2-(2-((3-(((19-(((3-(4-(bis(3-sulfonatopropyl)ammonio)butanamido)propyl)dimethylsilyl)oxy)-19H-6,11-(azeno)-17,21-(azeno[1]episoindoloazeno)benzo[7,8][1,3,5,10]tetraaza[2]silacycloundecino[4,3-a:11,1-a′]diisoindol-19-yl)oxy)dimethylsilyl)propyl)amino)-2-oxoethoxy)acetate] | B (B: >1 μg/mL to ≤100 μg/mL) |  |  | 
COCCOCCOCCN(CCCOC(=O)NCCC[Si](C)(C)O[Si-2]123(O[Si](C)(C)CCCNC(=O)COCC(=O)O)n4c5c6ccccc6c4N=C4c6ccccc6C(=[N+]41)N=c1c4ccccc4c(n12)=NC1=[N+]3C(=N5)c2ccccc21)CCOCCOCCOC [Example 3, 2-(2-((3-(((19-((11-(2-(2-(2-methoxyethoxy)ethoxy)ethyl)-21-methyl-16-oxo-2,5,8,15-tetraoxa-11,17-diaza-21-siladocosan-21-yl)oxy)-19H-6,11-(azeno)-17,21-(azeno[3]episoindoloazeno)benzo[7,8][1,3,5,10]tetraaza[2]silacycloundecino[4,3-a:11,1-a′]diisoindol-19-yl)oxy)dimethylsilyl)propyl)amino)-2-oxoethoxy)acetic acid] |  |  |  | solubility kinetic at 4 h ([2]; Dulbecco's phosphate-buffered saline (DPBS), pH 7.4, 25 °C): < 1 µg/mL
C[Si](C)(CCCNC(=O)COCC(=O)O)O[Si]1(O[Si](C)(C)CCCNC(=O)NCCS(=O)(=O)O)n2c3c4ccccc4c2N=C2N=C(N=c4c5ccccc5c(n41)=NC1=NC(=N3)c3ccccc31)c1ccccc12.N (stereo not drawn) [Example 7, Ammonium 2-(2-((3-(((19-((dimethyl(3-(3-(2-sulfonatoethyl)ureido)propyl)silyl)oxy)-19H-6,11-(azeno)-17,21-(azeno[1]episoindoloazeno)benzo[7,8][1,3,5,10]tetraaza[2]silacycloundecino[4,3-a:11,1-a′]diisoindol-19-yl)oxy)dimethylsilyl)propyl)amino)-2-oxoethoxy)acetate] | A (A: ≤1 μg/mL) |  |  | 
C[Si](C)(CCCNC(=O)COCC(=O)O)O[Si]1(O[Si](C)(C)CCCNC(=O)NCC(S(=O)(=O)O)S(=O)(=O)O)n2c3c4ccccc4c2N=C2N=C(N=c4c5ccccc5c(n41)=NC1=NC(=N3)c3ccccc31)c1ccccc12.N (stereo not drawn) [Example 8, Ammonium 2-(2-((3-(((19-(((3-(3-(2,2-disulfonatoethyl)ureido)propyl)dimethylsilyl)oxy)-19H-6,11-(azeno)-17,21-(azeno[1]episoindoloazeno)benzo[7,8][1,3,5,10]tetraaza[2]silacycloundecino[4,3-a:11,1-a′]diisoindol-19-yl)oxy)dimethylsilyl)propyl)amino)-2-oxoethoxy)acetate] | A (A: ≤1 μg/mL) |  |  | 
C[Si](C)(CCC[N+](CCCS(=O)(=O)[O-])(CCCS(=O)(=O)[O-])CCCS(=O)(=O)[O-])O[Si@@]1(O[Si](C)(C)CCC[N+](CCCS(=O)(=O)[O-])(CCCS(=O)(=O)[O-])CCOCCOCCOCCC(=O)[O-])n2c3c4ccccc4c2/N=C2N=C(/N=c4/c5ccccc5/c(n41)=N/C1=NC(=N\3)/c3ccccc31)c1ccccc1\2.[Na+].[Na+].[Na+].[Na+] [Example 19, Sodium 2-((19-((dimethyl(3-(tris(3-sulfonatopropyl)ammonio)propyl)silyl)oxy)-19H-6,11-(azeno)-17,21-(azeno[3]episoindoloazeno)benzo[7,8][1,3,5,10]tetraaza[2]silacycloundecino[4,3-a:11,1-a′]diisoindol-19-yl)oxy)-2-methyl-6,6-bis(3-sulfonatopropyl)-9,12,15-trioxa-6-aza-2-silaoctadecan-6-ium-18-oate] |  | > 100 µg/mL | B (B: >0.5) | 
C[Si](C)(CCC[N+](CCCCS(=O)(=O)O)(CCCCS(=O)(=O)O)CCCCS(=O)(=O)O)O[Si-2]123(O[Si](C)(C)CCC[N+](CCCCS(=O)(=O)O)(CCCCS(=O)(=O)O)CCOCCOCCOCCC(=O)O)n4c5c6ccccc6c4N=C4c6ccccc6C(=[N+]41)N=c1c4ccccc4c(n12)=NC1=[N+]3C(=N5)c2ccccc21.[Na+].[Na+].[Na+].[Na+] [Example 17, Sodium 2-((19-((dimethyl(3-(tris(4-sulfonatobutyl)ammonio)propyl)silyl)oxy)-19H-6,11-(azeno)-17,21-(azeno[3]episoindoloazeno)benzo[7,8][1,3,5,10]tetraaza[2]silacycloundecino[4,3-a:11,1-a′]diisoindol-19-yl)oxy)-2-methyl-6,6-bis(4-sulfonatobutyl)-9,12,15-trioxa-6-aza-2-silaoctadecan-6-ium-18-oate] |  | > 100 µg/mL | B (B: >0.5) | 
C[Si](C)(CCC[N+](CCCCS(=O)(=O)[O-])(CCCCS(=O)(=O)[O-])CCCCS(=O)(=O)[O-])O[Si@@]1(O[Si](C)(C)CCC[N+](CCCCS(=O)(=O)[O-])(CCCCS(=O)(=O)[O-])CCOCCOCCC(=O)[O-])n2c3c4ccccc4c2/N=C2N=C(/N=c4/c5ccccc5/c(n41)=N/C1=NC(=N\3)/c3ccccc31)c1ccccc1\2.[Na+].[Na+].[Na+].[Na+] [Example 18, Sodium 2-((19-((dimethyl(3-(tris(4-sulfonatobutyl)ammonio)propyl)silyl)oxy)-19H-6,11-(azeno)-17,21-(azeno[3]episoindoloazeno)benzo[7,8][1,3,5,10]tetraaza[2]silacycloundecino[4,3-a:11,1-a′]diisoindol-19-yl)oxy)-2-methyl-6,6-bis(4-sulfonatobutyl)-9,12-dioxa-6-aza-2-silapentadecan-6-ium-15-oate] |  | > 100 µg/mL | B (B: >0.5) | 
C[Si](C)(CCCNC(=O)CCC[N+](CCCS(=O)(=O)[O-])(CCCS(=O)(=O)O)CCCS(=O)(=O)O)O[Si]1(O[Si](C)(C)CCCNC(=O)COCC(=O)O)n2c3c4ccccc4c2N=C2N=C(N=c4c5ccccc5c(n41)=NC1=NC(=N3)c3ccccc31)c1ccccc12.N (stereo not drawn) [Example 5, Ammonium 3-((4-((3-(((19-(((3-(2-(carboxymethoxy)acetamido)propyl)dimethylsilyl)oxy)-19H-6,11-(azeno)-17,21-(azeno[3]episoindoloazeno)benzo[7,8][1,3,5,10]tetraaza[2]silacycloundecino[4,3-a:11,1-a′]diisoindol-19-yl)oxy)dimethylsilyl)propyl)amino)-4-oxobutyl)bis(3-sulfopropyl)ammonio)propane-1-sulfonate] |  |  | B (B: >0.5) | 
